{"source": "patent US20180044350A1", "about": "“THERAPEUTIC CYCLIC COMPOUNDS AS IMMUNOMODULATORS” (priority 2015, published 2018)", "data": [{"biological_target": "T1, Recombinant mouse PD-L1 (Mus musculus, UniProt Q9EP73)", "T1 construct": "Fc (Fc chimera); purchased R&D Systems 1019-B7-100", "T1 sequence (Q9EP73 with tags, fused parts or gaps limits assumed)": "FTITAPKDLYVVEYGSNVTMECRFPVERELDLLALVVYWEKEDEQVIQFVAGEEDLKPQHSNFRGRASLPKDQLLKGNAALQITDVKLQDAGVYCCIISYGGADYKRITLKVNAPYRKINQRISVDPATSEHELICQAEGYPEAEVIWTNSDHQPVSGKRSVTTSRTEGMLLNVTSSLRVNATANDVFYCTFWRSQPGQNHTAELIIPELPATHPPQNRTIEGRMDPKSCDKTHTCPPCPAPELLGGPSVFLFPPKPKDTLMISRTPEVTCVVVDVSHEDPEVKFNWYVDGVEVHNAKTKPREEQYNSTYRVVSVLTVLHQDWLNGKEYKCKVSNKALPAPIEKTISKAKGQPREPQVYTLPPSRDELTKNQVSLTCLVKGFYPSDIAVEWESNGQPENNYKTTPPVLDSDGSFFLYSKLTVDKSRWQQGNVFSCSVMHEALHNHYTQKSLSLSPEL", "assay": "Rescue of mouse splenocyte proliferation in the presence of recombinant PD-L1 (CFSE proliferation assay)", "type": "cell-based", "settings": "100 nM compound; anti-CD3/CD28 stimulated CFSE-labelled mouse splenocytes + PD-L1, 72 h; normalised to stimulated splenocyte proliferation as 100%; read-out: Percent rescue of proliferation (@100 nM compound concentration)", "procedure": "Rescue of Mouse Splenocyte Proliferation in the Presence of Recombinant PD-L1\nRecombinant mouse PD-L1 (rm-PDL-1, cat no: 1019-B7-100; R&D Systems) were used as the source of PD-L1.\nMouse splenocytes harvested from 6-8 weeks old C57 BL6 mice; RPMI 1640 (GIBCO, Cat #11875); DMEM with high glucose (GIBCO, Cat #D6429); Fetal Bovine Serum └Hyclone, Cat #SH30071.03┘; Penicillin (10000 unit/mL)-Streptomycin(10,000 μg/mL) Liquid (GIBCO, Cat #15140-122); MEM Sodium Pyruvate solution 100 mM (100×), Liquid (GIBCO, Cat #11360); Nonessential amino acid (GIBCO, Cat #11140); L-Glutamine (GIBCO, Cat #25030); Anti-CD3 antibody (eBiosciences—16-0032); Anti-CD28 antibody (eBiosciences—16-0281); ACK lysis buffer (1 mL) (GIBCO, Cat #-A10492); Histopaque (density-1.083 gm/mL) (SIGMA 10831); Trypan blue solution (SIGMA-T8154); 2 mL Norm Ject Luer Lock syringe-(Sigma 2014-12); 40 μm nylon cell strainer (BD FALCON 35230); Hemacytometer (Bright line-SIGMA Z359629); FACS Buffer (PBS/0.1% BSA): Phosphate Buffered Saline (PBS) pH 7.2 (HiMedia TS1006) with 0.1% Bovine Serum Albumin (BSA) (SIGMA A7050) and sodium azide (SIGMA 08591); 5 mM stock solution of CFSE: CFSE stock solution was prepared by diluting lyophilized CFSE with 180 μL of Dimethyl sulfoxide (DMSO C2H6SO, SIGMA-D-5879) and aliquoted in to tubes for further use. Working concentrations were titrated from 10 μM to 1 μM. (eBioscience-650850-85); 0.05% Trypsin and 0.02% EDTA (SIGMA 59417C); 96-well format ELISA plates (Corning CLS3390); BD FACS caliber (E6016); Recombinant mouse B7-H1/PDL1 Fc Chimera, (rm-PD-L1 cat no: 1019-B7-100).\nSplenocytes harvested in a 50 mL falcon tube by mashing mouse spleen in a 40 μm cell strainer were further treated with 1 mL ACK lysis buffer for 5 min at room temperature. After washing with 9 mL of RPMI complete media, cells were re-suspended in 3 mL of 1×PBS in a 15 mL tube. 3 mL of Histopaque was added carefully to the bottom of the tube without disturbing overlaying splenocyte suspension. After centrifuging at 800×g for 20 min at room temperature, the opaque layer of splenocytes was collected carefully without disturbing/mixing the layers. Splenocytes were washed twice with cold 1×PBS followed by total cell counting using Trypan Blue exclusion method and used further for cell based assays.\nSplenocytes were cultured in RPMI complete media (RPMI+10% fetal bovine serum+1 mM sodium pyruvate+10,000 units/mL penicillin and 10,000 μg/mL streptomycin) and maintained in a CO2 incubator with 5% CO2 at 37° C.\nCFSE is a dye that passively diffuses into cells and binds to intracellular proteins. 1×10^6 cells/mL of harvested splenocytes were treated with 5 μM of CFSE in pre-warmed 1×PBS/0.1% BSA solution for 10 min at 37° C. Excess CFSE was quenched using 5 volumes of ice-cold culture media to the cells and incubated on ice for 5 min CFSE labelled splenocytes were further given three washes with ice cold complete RPMI media. CFSE labelled 1×10^5 splenocytes added to wells containing either MDA-MB231 cells (1×10^5 cells cultured in high glucose DMEM medium) or recombinant human PDL-1 (100 ng/mL) and test compounds. Splenocytes were stimulated with anti-mouse CD3 and anti-mouse CD28 antibody (1 μg/mL each) and the culture was further incubated for 72 h at 37° C. with 5% CO2. Cells were harvested and washed thrice with ice cold FACS buffer and % proliferation was analysed by flow cytometry with 488 nm excitation and 521 nm emission filters.\nPercent splenocyte proliferation was analysed using cell quest FACS program and percent rescue of splenocyte proliferation by compound was estimated after deduction of % background proliferation value and normalising to % stimulated splenocyte proliferation (positive control) as 100%.\nStimulated splenocytes: Splenocytes+anti-CD3/CD28 stimulation.\nBackground proliferation: Splenocytes+anti-CD3/CD28+PD-L1.\nCompound proliferation: Splenocytes+anti-CD3/CD28+PD-L1+Compound. […]", "units": {"activation at 0.1 µM": "%"}, "values": [{"molecule": "O=C1COCCOCCNC(=O)[C@H](Cc2ccc(O)cc2)NC(=O)N2CCCC2C(=O)NNC(=O)[C@H](Cc2ccc(O)cc2)N1", "note": "(some centres unmarked) [Compound 1]", "activation at 0.1 µM": 76}, {"molecule": "CC(O)[C@@H]1NC(=O)N[C@@H](CC(N)=O)C(=O)NNC(=O)[C@H](CCCCN)NC(=O)COCCOCCNC1=O", "note": "(some centres unmarked) [Compound 2]", "activation at 0.1 µM": 57}, {"molecule": "CC(O)[C@@H]1NC(=O)N[C@@H](Cc2ccccc2)C(=O)NNC(=O)[C@H](CO)NC(=O)COCCOCCNC1=O", "note": "(some centres unmarked) [Compound 3]", "activation at 0.1 µM": 66}, {"molecule": "NCCCC[C@@H]1NC(=O)COCCOCCNC(=O)[C@H](CCCCN)NC(=O)N[C@@H](CCCCN)C(=O)NNC1=O", "note": "[Compound 5]", "activation at 0.1 µM": 24}, {"molecule": "CC(O)[C@@H]1NC(=O)N[C@@H](CCCCN)C(=O)NNC(=O)[C@H](CO)NC(=O)COCCOCCNC1=O", "note": "(some centres unmarked) [Compound 6]", "activation at 0.1 µM": 40}, {"molecule": "CCC(C)[C@@H]1NC(=O)N[C@@H](C(C)O)C(=O)NCCOCCOCC(=O)N[C@@H](CO)C(=O)NNC1=O", "note": "(some centres unmarked) [Compound 7]", "activation at 0.1 µM": 23}, {"molecule": "CC(O)[C@@H]1NC(=O)N[C@@H](CC(N)=O)C(=O)NNC(=O)[C@H](CC(=O)O)NC(=O)COCCOCCNC1=O", "note": "(some centres unmarked) [Compound 9]", "activation at 0.1 µM": 46}, {"molecule": "O=C(O)C[C@@H]1NC(=O)COCCOCCNC(=O)[C@H](CC(=O)O)NC(=O)N[C@@H](CC(=O)O)C(=O)NNC1=O", "note": "[Compound 10]", "activation at 0.1 µM": 53}, {"molecule": "O=C1COCCOCCNC(=O)[C@H](CO)NC(=O)N[C@@H](CO)C(=O)NNC(=O)[C@H](CO)N1", "note": "[Compound 11]", "activation at 0.1 µM": 17}, {"molecule": "CC(O)[C@@H]1NC(=O)COCCOCCNC(=O)[C@H](C(C)O)NC(=O)N[C@@H](C(C)O)C(=O)NNC1=O", "note": "(some centres unmarked) [Compound 12]", "activation at 0.1 µM": 91}, {"molecule": "CC(C)C[C@@H]1NC(=O)N[C@@H](CC(N)=O)C(=O)NNC(=O)[C@H](CO)NC(=O)COCCOCCNC1=O", "note": "[Compound 13]", "activation at 0.1 µM": 53}, {"molecule": "CCC(C)[C@@H]1NC(=O)N[C@@H](CCC(=O)O)C(=O)NCCOCCOCC(=O)N[C@@H](CCC(N)=O)C(=O)NNC1=O", "note": "(some centres unmarked) [Compound 15]", "activation at 0.1 µM": 40}, {"molecule": "CC(O)[C@@H]1NC(=O)N[C@@H](Cc2ccccc2)C(=O)NNC(=O)[C@H](CCCCN)NC(=O)COCCOCCNC1=O", "note": "(some centres unmarked) [Compound 16]", "activation at 0.1 µM": 30}, {"molecule": "CCC(C)[C@@H]1NC(=O)N[C@@H](CCC(N)=O)C(=O)NCCOCCOCC(=O)N[C@@H](CCC(=O)O)C(=O)NNC1=O", "note": "(some centres unmarked) [Compound 17]", "activation at 0.1 µM": 38}]}]}
